Assay results reported in ChEMBL document CHEMBL1124922 (J Med Chem, 1990).

Tests used:
[1] = Evaluated for cytotoxicity under aerobic conditions against UV4 cells using microassay; type: cell-based; conditions: Cricetulus griseus
Cricetulus griseus = species on record: Cricetulus griseus; assay: Evaluated for hypersensitivity factor (HF) (HF = IC50 AA8 / IC50 UV-4) values are intra experiment ratios; type: functional
[2] = Evaluated for cytotoxicity under aerobic conditions against AA8 cells using microassay; type: cell-based; conditions: Cricetulus griseus, CHO-AA8

SMILES	IC50 [1] [µM]	Ratio (Cricetulus griseus)	IC50 [2] [µM]
CS(=O)(=O)OCCN(CCOS(C)(=O)=O)c1ccc([N+](=O)[O-])cc1	1.39	> 1	
O=[N+]([O-])c1ccc(N(CCO)CCO)cc1			3200
O=[N+]([O-])c1cccc(N(CCO)CCO)c1			3060
CS(=O)(=O)OCCN(CCOS(C)(=O)=O)c1ccccc1	0.59	30	13.6
O=[N+]([O-])c1ccccc1N(CCO)CCO			7970
